Laboratory results taken from PubChem BioAssay (NCI).
Where “and” joins values, the source holds several entries; their conditions need not be identical. Equal entries are not always repeated.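 How tested: cells in 96-well plates exposed to compound for 48 hours at five concentrations. At the GI50, growth is halved. At the TGI there is no net growth.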

Legend:
Experiment in all cases: NCI tumour cell line growth inhibition, 48 h
MDA-N = system: MDA-N
M19-MEL melanoma = system: M19-MEL melanoma
KM20L2 colon = system: KM20L2 colon
XF 498 CNS = system: XF 498 CNS
DMS 114 small cell lung = system: DMS 114 small cell lung
LXFL 529 NSCLC = system: LXFL 529 NSCLC
DMS 273 small cell lung = system: DMS 273 small cell lung
RXF-631 renal = system: RXF-631 renal
HOP-18 NSCLC = system: HOP-18 NSCLC
P388/ADR leukemia = system: P388/ADR leukemia
P388 leukemia = system: P388 leukemia

Row | Compound | TGI (MDA-N) [µM] | TGI (M19-MEL melanoma) | TGI (KM20L2 colon) | TGI (XF 498 CNS) | TGI (DMS 114 small cell lung) | TGI (LXFL 529 NSCLC) [µM] | TGI (DMS 273 small cell lung) | TGI (HOP-18 NSCLC) | also measured
1 | CC1=NN(c2ccc(S(=O)(=O)O)cc2)C(=O)/C1=C/c1ccc(Cl)cc1 | > 100 | – | – | – | – | – | – | – | –
2 | O=c1c2ccccc2nc(/C=C(\O)c2ccncc2)n1-c1ccc(Cl)cc1 | – | > 100 µM | > 100 µM | 66.4 µM | > 100 µM | > 100 | – | – | –
3 | COC(=O)c1ccccc1N1C(=O)Cc2ccccc2C1=O | – | > 100 µM | > 100 µM | – | > 100 µM | > 100 | > 100 µM | – | –
4 | O=[N+]([O-])c1ccc(C2=Nn3c(nnc3-c3ccc(Cl)cc3)SC2)o1 | 16.4 | 7.95 µM | 16.1 µM | 28.7 µM | 12.4 µM | 14.1 | 31.1 µM | 33.6 µM | TGI (RXF-631 renal): 27.9 µM
5 | c1ccc2cc(NCNc3ccc4ccccc4c3)ccc2c1 | 18.6 | – | – | – | – | – | – | – | –
6 | C[C@@H]1CCC([C@@H](C)[C@H]2CC[C@H]3[C@@H]4CC[C@H]5C[C@@H](O)CC[C@]5(C)[C@H]4CC[C@]23C)=NC1 | > 100 | – | – | – | – | – | – | – | –
7 | COC(=O)C1=COC(C)C2CN3CCc4c([nH]c5cc(OC)c(OC)cc45)C3CC12 (centres undefined) | > 100 | – | – | – | – | – | – | – | –
8 | CC1(C)CC[C@]2(C(=O)O)CC[C@]3(C)C(=CC[C@@H]4[C@@]5(C)C[C@H](O)[C@H](O)[C@@](C)(C(=O)O)[C@@H]5CC[C@]43C)[C@@H]2C1 | > 100 | – | – | – | – | – | – | – | –
9 | CCOC(=O)Cc1csc(Nc2ccc(OCC)cc2)n1 | – | > 100 µM | > 100 µM | > 100 µM | > 100 µM | > 100 | – | > 100 µM | TGI (RXF-631 renal): > 100 µM
10 | CCCCC(C(=O)CCC(=O)Nc1ccc(Cl)c(Cl)c1)C(=O)C(C)C (centres undefined) | – | > 100 µM | > 100 µM | – | > 100 µM | > 100 | > 100 µM | > 100 µM | –
11 | NC(N)=NC(N)=Nc1cnccn1 | > 100 | – | – | – | – | – | – | – | –
12 | C(=N\Nc1ccccc1)/c1nc2ccccc2nc1/C=N/Nc1ccccc1 | – | 41.1 µM | 26.5 µM | – | – | 23 | – | – | TGI (RXF-631 renal): 27.6 µM
13 | Nc1nc(Cl)cc(NCC(O)CO)n1 (centres undefined) | – | > 100 µM | > 100 µM | > 100 µM | > 100 µM | > 100 | > 100 µM | > 100 µM | –
14 | COc1cc(O)c2c(c1)O[C@@H]1OCC[C@H]21 | – | – | > 100 µM | > 100 µM | > 100 µM | > 100 | > 100 µM | > 100 µM | –
15 | CCC(O)C1Cc2c(C)cc3c(c2O1)C(=O)c1ccccc1C3=O (centres undefined) | – | > 100 µM | > 100 µM | 58.9 µM | 97.7 µM | > 100 | > 100 µM | 73.6 µM | –
16 | O=C1NC2C(=CC(O)C(O)C2O)c2cc3c(cc21)OCO3 (centres undefined) | 1.22 | 1.72 µM and 1.53 µM | 5.54 µM and 5.32 µM | 0.93 µM and 1.81 µM and 0.644 µM | 3.84 µM and 2.17 µM | 3.66 | 1.99 µM and 2.07 µM | 4.33 µM and 13.1 µM | GI50 (M19-MEL melanoma): 0.353 µM and 0.282 µM; GI50 (RXF-631 renal): 0.23 µM; TGI (RXF-631 renal): 3.13 µM; GI50 (KM20L2 colon): 0.34 µM and 0.261 µM; GI50 (HOP-18 NSCLC): 0.545 µM and 0.392 µM; TGI (P388/ADR leukemia): 0.714 µM; GI50 (XF 498 CNS): 0.207 µM and 0.416 µM; GI50 (DMS 273 small cell lung): 0.604 µM and 0.301 µM; GI50 (DMS 114 small cell lung): 0.335 µM and 0.321 µM; GI50 (LXFL 529 NSCLC): 0.313 µM; TGI (P388 leukemia): 0.461 µM
17 | O=C(c1ccccc1)C(c1ccccc1)C1(O)C(=O)Nc2ccc([N+](=O)[O-])cc21 (centres undefined) | – | 72.2 µM | > 100 µM | > 100 µM | 79.3 µM | > 100 | – | – | TGI (RXF-631 renal): > 100 µM
18 | Nc1nc(N)c(-c2ccccc2)c(C(=O)Nc2ccccc2)n1 | – | > 100 µM | > 100 µM | > 100 µM | – | – | – | > 100 µM | –
19 | CC1(Br)CC2OC3(Br)C=CC(C)(O)C2(CC1=O)C3(C)C (centres undefined) | – | – | > 100 µM | > 100 µM | > 100 µM | > 100 | > 100 µM | > 100 µM | –

Row | Compound | TGI (MDA-N) [µM] | TGI (M19-MEL melanoma) | TGI (KM20L2 colon) | TGI (XF 498 CNS) | TGI (DMS 114 small cell lung) | TGI (LXFL 529 NSCLC) [µM] | TGI (DMS 273 small cell lung) | TGI (HOP-18 NSCLC) | also measured
20 | CCOC(=O)C(N=C(c1ccccc1)c1ccccc1)N(C(=O)OC(C)(C)C)C(=O)OC(C)(C)C (centres undefined) | – | > 100 µM | > 100 µM | – | > 100 µM | > 100 | – | – | –
21 | COc1ccc(Cc2c(=O)[nH]nc3ccccc23)cc1 | – | > 100 µM | > 100 µM | > 100 µM | > 100 µM | – | > 100 µM | > 100 µM | TGI (RXF-631 renal): > 100 µM
22 | Cc1cc(C)n(-c2ccnc3cc(Cl)ccc23)n1 | – | > 100 µM | > 100 µM | > 100 µM | > 100 µM | > 100 | > 100 µM | > 100 µM | –
23 | CCCCNC(=O)C1C(=O)N(CCCC)C(=O)/C1=N\N (centres undefined) | – | > 100 µM | > 100 µM | > 100 µM | > 100 µM | > 100 | > 100 µM | > 100 µM | TGI (RXF-631 renal): > 100 µM
24 | COc1cc2c(c(OC)c1OC)-c1ccc(OC)c(=O)cc1[C@@H](NC(C)=O)CC2 | 0.833 | > 522 µM | 0.00625 µM and 0.036 µM and < 0.0625 µM | – | 0.0724 µM | – | – | – | TGI (RXF-631 renal): > 91.2 µM; GI50 (KM20L2 colon): 0.00285 µM and 0.018 µM; TGI (P388/ADR leukemia): 55.9 µM; TGI (P388 leukemia): 2.7 µM
25 | CC1=CCCC2C1(C)CCC(C)C2(C)Cc1cc(O)ccc1O (centres undefined) | 25.3 | 20.8 µM | 27.9 µM | 21.7 µM | 13.3 µM | – | 20.2 µM | 36.2 µM | TGI (P388/ADR leukemia): 13 µM; TGI (P388 leukemia): 4.94 µM
26 | O=[N+]([O-])c1cc([N+](=O)[O-])c(/C=C/c2ccc(Cl)c(Cl)c2)cc1/C=C/c1ccc(Cl)c(Cl)c1 | – | 46.1 µM | 81 µM | – | 68.1 µM | 56.1 | 96.4 µM | – | –
27 | CC[C@@]1(O)C(=O)OCc2c1cc1n(c2=O)Cc2cc3cccc([N+](=O)[O-])c3nc2-1 | – | – | 41.7 µM | 34.6 µM | 38.3 µM | > 100 | 1.67 µM | > 100 µM | GI50 (KM20L2 colon): 3.24 µM; GI50 (HOP-18 NSCLC): 1.85 µM; GI50 (XF 498 CNS): 3.12 µM; GI50 (DMS 273 small cell lung): 0.175 µM; GI50 (DMS 114 small cell lung): 0.684 µM; GI50 (LXFL 529 NSCLC): 14.2 µM
28 | O=C1[C@@H]2C(c3ccccc3[N+](=O)[O-])=[N+](c3ccccc3)O[C@@H]2C(=O)N1c1ccc(Cc2ccc(N3C(=O)[C@H]4C(c5ccccc5[N+](=O)[O-])=[N+](c5ccccc5)O[C@H]4C3=O)cc2)cc1 | – | > 100 µM | > 100 µM | – | > 100 µM | > 100 | > 100 µM | > 100 µM | –
29 | CONC(C)=O | > 100 | – | – | – | – | – | – | – | –
30 | CCOC(=O)NC/C=C/COC1CCCCO1 (centres undefined) | – | > 100 µM | > 100 µM | – | > 100 µM | > 100 | > 100 µM | > 100 µM | –
31 | N#CCCCCCOCCOCCOCCOCCOCCCCCC#N | – | > 100 µM | > 100 µM | – | > 100 µM | > 100 | > 100 µM | > 100 µM | TGI (RXF-631 renal): > 100 µM
32 | Cc1nn2c(nc1=O)sc1ccc3ccccc3c12 | – | > 100 µM | > 100 µM | > 100 µM | > 100 µM | > 100 | > 100 µM | > 100 µM | –
33 | O=C(O)C(C(=O)O)P(=S)(S)c1ccccc1 (centres undefined) | > 100 | > 100 µM | > 100 µM | > 100 µM | > 100 µM | > 100 | > 100 µM | – | TGI (RXF-631 renal): > 100 µM
34 | Cc1ccc(-c2cc3c4c(nc5ccccc53)C(=O)c3cccnc3-c4n2)cc1 | 10.3 | – | – | – | – | – | – | – | GI50 (MDA-N): 3.27 µM
35 | CCCNCC(=O)O[C@]1(CC)C(=O)OCc2c1cc1n(c2=O)Cc2cc3ccccc3nc2-1 | – | 1.96 µM | 19.2 µM | 0.652 µM | 0.941 µM | 67.6 | 0.114 µM | > 100 µM | –
36 | COC(=O)C1=CO[C@@H](OC2OC(CO)C(O)C(O)C2O)[C@H]2[C@@H](C)[C@@H](O)[C@@H](O)[C@@H]12 (some centres undefined) | > 100 | – | – | – | – | – | – | – | –
37 | COc1cc(-c2oc3c(OC)cc(OC)c(O)c3c(=O)c2OC)cc(OC)c1OC | > 100 | – | – | – | – | – | – | – | –
38 | Cc1ccc(NC(=O)c2cc3ccccc3c(N=Nc3cc(S(=O)(=O)O)ccc3O)c2O)c(C)c1 | > 100 | – | – | – | – | – | – | – | –
